Laboratory results reported in ChEMBL document CHEMBL3885861, “Open TG-GATES”.

Species: Rattus norvegicus
Assay: Open TG-GATES - Regimen: Single
Assay type: toxicity, organism-based, Sprague-Dawley
Design: regimen Single, gender Male, age 6 weeks
Conditions: in vivo, po, 100 mg/kg, route gavage, dose level Low; for APTT / Bas / Eos / Fbg / Hb / Ht / Lym / MCH / MCHC / MCV / Mono / Neu / PT / Plat / RBC / Ret / WBC: tissue Blood; for KIDNEY_L / KIDNEY_R / KIDNEY_TOTAL: tissue Kidney; for LIVER: tissue Liver; for A/G / ALP / ALT / AST / BUN / CRE / Ca / Cl / DBIL / GLC / IP / K / LDH / Na / PL / RALB / TBIL / TC / TG / TP / gamma-GTP: tissue Plasma

Question: What does the source list for `CC(C)(S)[C@@H](N)C(=O)O` [PENICILLAMINE]?
Answer: TERMINAL_BW (3 h): 201.7 g; APTT (3 h): 15.4 s; Bas (3 h): 0%; Eos (3 h): 1%; Fbg (3 h): 283 mg/dL; Hb (3 h): 13.5 g/dL; Ht (3 h): 41.8%; Lym (3 h): 79.2%; MCH (3 h): 20.5 pg; MCHC (3 h): 32.4%; MCV (3 h): 63.4 fL; Mono (3 h): 2.8%; Neu (3 h): 16.4%; PT (3 h): 15 s; Plat (3 h): 118.1 x10_4/uL; RBC (3 h): 659.6 x10_4/ul; Ret (3 h): 9.3%; WBC (3 h): 78.7 x10_2/uL; KIDNEY_L (3 h): 0.9 g; KIDNEY_R (3 h): 0.9 g; KIDNEY_TOTAL (3 h): 1.8 g; LIVER (3 h): 8.7 g; A/G (3 h): 1; ALP (3 h): 1342 IU/L; ALT (3 h): 42.6 IU/L; AST (3 h): 74.4 IU/L; BUN (3 h): 9.6 mg/dL; CRE (3 h): 0.2 mg/dL; Ca (3 h): 10.8 mg/dL; Cl (3 h): 106.6 meq/L; DBIL (3 h): 0.012 mg/dL; GLC (3 h): 186.8 mg/dL; IP (3 h): 8.2 mg/dL; K (3 h): 4.3 meq/L; LDH (3 h): 61.2 IU/L; Na (3 h): 142.2 meq/L; PL (3 h): 139 mg/dL; RALB (3 h): 2.6 g/dL; TBIL (3 h): 0.036 mg/dL; TC (3 h): 74.4 mg/dL; TG (3 h): 63.6 mg/dL; TP (3 h): 5.3 g/dL; gamma-GTP (3 h): 1 IU/L; TERMINAL_BW (6 h): 200.9 g; APTT (6 h): 18.6 s; Bas (6 h): 0%; Eos (6 h): 1%; Fbg (6 h): 310 mg/dL; Hb (6 h): 13.4 g/dL; Ht (6 h): 41.5%; Lym (6 h): 74.8%; MCH (6 h): 20.6 pg; MCHC (6 h): 32.2%; MCV (6 h): 63.9 fL; Mono (6 h): 3%; Neu (6 h): 20.6%; PT (6 h): 14.7 s; Plat (6 h): 117.7 x10_4/uL; RBC (6 h): 651 x10_4/ul; Ret (6 h): 9.1%; WBC (6 h): 91.5 x10_2/uL; KIDNEY_L (6 h): 0.9 g; KIDNEY_R (6 h): 0.9 g; KIDNEY_TOTAL (6 h): 1.8 g; LIVER (6 h): 8.2 g; A/G (6 h): 0.9; ALP (6 h): 1252 IU/L; ALT (6 h): 38 IU/L; AST (6 h): 76 IU/L; BUN (6 h): 7.2 mg/dL; CRE (6 h): 0.2 mg/dL; Ca (6 h): 10.7 mg/dL; Cl (6 h): 106.6 meq/L; DBIL (6 h): 0.01 mg/dL; GLC (6 h): 175.4 mg/dL; IP (6 h): 8.7 mg/dL; K (6 h): 4 meq/L; LDH (6 h): 63.8 IU/L; Na (6 h): 143 meq/L; PL (6 h): 138.2 mg/dL; RALB (6 h): 2.5 g/dL; TBIL (6 h): 0.038 mg/dL; TC (6 h): 78.8 mg/dL; TG (6 h): 44.6 mg/dL; TP (6 h): 5.2 g/dL; gamma-GTP (6 h): 1.2 IU/L; TERMINAL_BW (9 h): 200 g; APTT (9 h): 15.2 s; Bas (9 h): 0%; Eos (9 h): 0.8%; Fbg (9 h): 315.8 mg/dL; Hb (9 h): 13.3 g/dL; Ht (9 h): 41.2%; Lym (9 h): 78%; MCH (9 h): 20.5 pg; MCHC (9 h): 32.3%; MCV (9 h): 63.6 fL; Mono (9 h): 2.2%; Neu (9 h): 18.4%; PT (9 h): 14.3 s; Plat (9 h): 124 x10_4/uL; RBC (9 h): 647.4 x10_4/ul; Ret (9 h): 9%; WBC (9 h): 74.3 x10_2/uL; KIDNEY_L (9 h): 0.9 g; KIDNEY_R (9 h): 0.9 g; KIDNEY_TOTAL (9 h): 1.8 g; LIVER (9 h): 7.9 g; A/G (9 h): 0.9; ALP (9 h): 1373.8 IU/L; ALT (9 h): 40 IU/L; AST (9 h): 68.6 IU/L; BUN (9 h): 9.6 mg/dL; CRE (9 h): 0.2 mg/dL; Ca (9 h): 10.7 mg/dL; Cl (9 h): 106.4 meq/L; DBIL (9 h): 0.008 mg/dL; GLC (9 h): 166.2 mg/dL; IP (9 h): 10 mg/dL; K (9 h): 4 meq/L; LDH (9 h): 54.4 IU/L; Na (9 h): 143.2 meq/L; PL (9 h): 137 mg/dL; RALB (9 h): 2.6 g/dL; TBIL (9 h): 0.034 mg/dL; TC (9 h): 79.6 mg/dL; TG (9 h): 45 mg/dL; TP (9 h): 5.4 g/dL; gamma-GTP (9 h): 1.2 IU/L; TERMINAL_BW (24 h): 219.1 g; APTT (24 h): 16.6 s; Bas (24 h): 0%; Eos (24 h): 0.8%; Fbg (24 h): 272.4 mg/dL; Hb (24 h): 13 g/dL; Ht (24 h): 40%; Lym (24 h): 78.6%; MCH (24 h): 20.8 pg; MCHC (24 h): 32.4%; MCV (24 h): 64.2 fL; Mono (24 h): 2.8%; Neu (24 h): 16.8%; PT (24 h): 14.2 s; Plat (24 h): 125.3 x10_4/uL; RBC (24 h): 623.4 x10_4/ul; Ret (24 h): 8%; WBC (24 h): 90.1 x10_2/uL; KIDNEY_L (24 h): 0.9 g; KIDNEY_R (24 h): 0.9 g; KIDNEY_TOTAL (24 h): 1.9 g; LIVER (24 h): 10.4 g; A/G (24 h): 0.9; ALP (24 h): 1649.2 IU/L; ALT (24 h): 45 IU/L; AST (24 h): 70.4 IU/L; BUN (24 h): 13.4 mg/dL; CRE (24 h): 0.2 mg/dL; Ca (24 h): 11 mg/dL; Cl (24 h): 104.4 meq/L; DBIL (24 h): 0.012 mg/dL; GLC (24 h): 178.6 mg/dL; IP (24 h): 7.9 mg/dL; K (24 h): 4 meq/L; LDH (24 h): 81.6 IU/L; Na (24 h): 143.2 meq/L; PL (24 h): 155.2 mg/dL; RALB (24 h): 2.7 g/dL; TBIL (24 h): 0.026 mg/dL; TC (24 h): 81.6 mg/dL; TG (24 h): 93.6 mg/dL; TP (24 h): 5.5 g/dL; gamma-GTP (24 h): 1 IU/L
